# Assay results as given in patent US8952024B2, “Herbicidal pyrimidone derivatives” (E I du Pont de Nemours and Company, priority 2009, dated 2015).
# Tests used:
# Assay type in all cases: in vivo
# [1] = tested on: velvetleaf (Abutilon theophrasti); assay: Test A pre-/postemergence plant response
# Summary of the method: (§1)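 Seeds planted in loam soil/sand blend; test chemicals in non-phytotoxic solvent mixture with surfactant applied as directed soil spray preemergence and, concurrently, postemergence to plants 2–10 cm tall at one- to two-leaf stage. Greenhouse ~10 days; visual injury vs untreated controls, 0 (no effect) to 100 (complete control).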
# [2] = tested on: barnyardgrass (Echinochloa crus-galli); assay: Test A pre-/postemergence plant response
# Summary of the method: as §1
# [3] = tested on: large crabgrass (Digitaria sanguinalis); assay: Test A pre-/postemergence plant response
# Summary of the method: as §1
# [4] = tested on: giant foxtail (Setaria faberii); assay: Test A pre-/postemergence plant response
# Summary of the method: as §1
# corn (Zea mays) = assay: Test A pre-/postemergence plant response
# Summary of the method: as §1
# [5] = tested on: morningglory (Ipomoea spp.); assay: Test A pre-/postemergence plant response
# Summary of the method: as §1
# [6] = tested on: wheat (Triticum aestivum); assay: Test A pre-/postemergence plant response
# Summary of the method: as §1
# [7] = tested on: pigweed (Amaranthus retroflexus); assay: Test A pre-/postemergence plant response
# Summary of the method: as §1
# [8] = tested on: barnyardgrass (Echinochloa crus-galli); assay: Test B flooded paddy test; conditions: for Plant response rating, Barnyardgrass: Flood (flooded paddy test), 13 to 15 days
# Summary of the method: (§2)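 Seedlings reaching 2 leaves are flooded 3 cm deep; test material is delivered to that water, which stays at the same depth. Plants remain in a greenhouse 13–15 days and are then scored by eye versus controls from 0 to 100.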
# rice (Oryza sativa) = assay: Test B flooded paddy test; conditions: for Plant response rating, Rice: Flood (flooded paddy test), 13 to 15 days
# Summary of the method: as §2
# [9] = tested on: ducksalad (Heteranthera limosa); assay: Test B flooded paddy test; conditions: for Plant response rating, Ducksalad: Flood (flooded paddy test), 13 to 15 days
# Summary of the method: as §2
# [10] = tested on: umbrella sedge (Cyperus difformis); assay: Test B flooded paddy test; conditions: for Plant response rating, Sedge, Umbrella: Flood (flooded paddy test), 13 to 15 days
# Summary of the method: as §2
# [11] = Postemergence, 125 g ai/ha, 0 to 100 scale where 0 is no effect and 100 is complete control
# [12] = Postemergence, 500 g ai/ha, 0 to 100 scale, 0 = no effect, 100 = complete control, approx. ten days
# [13] = Preemergence, 125 g ai/ha, 0 to 100 scale, 0 = no effect, 100 = complete control
# [14] = Preemergence, 500 g ai/ha, 0 to 100 scale, 0 = no effect, 100 = complete control
# [15] = Preemergence, 500 g ai/ha, visual injury, 0 to 100 scale (0 no effect, 100 complete control), approx. ten days
# [16] = 250 g ai/ha, flooded paddy test, visual rating on 0 to 100 scale (0 no effect, 100 complete control) after 13 to 15 days
# [17] = 62 g ai/ha, scale of 0 to 100 where 0 is no effect and 100 is complete control
# [18] = 125 g ai/ha, scale 0 to 100, 0 is no effect, 100 is complete control
# [19] = Flood, 31 g ai/ha, scale 0 to 100 (0 no effect, 100 complete control)
smiles,measurement,setting,value
CCn1c(-c2cccc(Cl)c2)ncc(C(=O)C2=C(O)CCCC2=O)c1=O [Compound 145],"Plant response rating, Velvetleaf",[1]; [11],100
same,"Plant response rating, Velvetleaf",[1]; [12],100
same,"Plant response rating, Velvetleaf",[1]; [13],90
same,"Plant response rating, Velvetleaf",[1]; [14],100
same,"Plant response rating, Barnyardgrass",[2]; [11],70
same,"Plant response rating, Barnyardgrass",[2]; [12],100
same,"Plant response rating, Barnyardgrass",[2]; [13],20
same,"Plant response rating, Barnyardgrass",[2]; [15],90
same,"Plant response rating, Crabgrass, Large",[3]; [11],70
same,"Plant response rating, Crabgrass, Large",[3]; [12],90
same,"Plant response rating, Crabgrass, Large",[3]; [13],50
same,"Plant response rating, Crabgrass, Large",[3]; [15],100
same,"Plant response rating, Foxtail, Giant",[4]; [11],60
same,"Plant response rating, Foxtail, Giant",[4]; [12],80
same,"Plant response rating, Foxtail, Giant",[4]; [13],30
same,"Plant response rating, Foxtail, Giant",[4]; [15],70
same,"Plant response rating, Corn",corn (Zea mays); [11],30
same,"Plant response rating, Corn",corn (Zea mays); [12],40
same,"Plant response rating, Corn",corn (Zea mays); [13],0
same,"Plant response rating, Corn",corn (Zea mays); [15],20
same,"Plant response rating, Morningglory",[5]; [11],90
same,"Plant response rating, Morningglory",[5]; [12],90
same,"Plant response rating, Morningglory",[5]; [13],0
same,"Plant response rating, Morningglory",[5]; [15],80
same,"Plant response rating, Wheat",[6]; [11],0
same,"Plant response rating, Wheat",[6]; [12],0
same,"Plant response rating, Wheat",[6]; [13],0
same,"Plant response rating, Wheat",[6]; [14],20
same,"Plant response rating, Pigweed",[7]; [11],100
same,"Plant response rating, Pigweed",[7]; [12],100
same,"Plant response rating, Pigweed",[7]; [13],70
same,"Plant response rating, Pigweed",[7]; [15],100
same,"Plant response rating, Flood, Barnyardgrass",[8]; [16],25
same,"Plant response rating, Barnyardgrass",[8]; [17],0
same,"Plant response rating, Barnyardgrass",[8]; [18],0
same,Barnyardgrass plant response rating,[8]; [19],0
same,"Plant response rating, Flood, Rice",rice (Oryza sativa); [16],0
same,"Plant response rating, Rice",rice (Oryza sativa); [17],0
same,"Plant response rating, Rice",rice (Oryza sativa); [18],0
same,Rice plant response rating,rice (Oryza sativa); [19],0
same,"Plant response rating, Flood, Ducksalad",[9]; [16],80
same,"Plant response rating, Ducksalad",[9]; [17],80
same,"Plant response rating, Ducksalad",[9]; [18],80
same,Ducksalad plant response rating,[9]; [19],80
same,"Plant response rating, Flood, Sedge, Umbrella",[10]; [16],80
same,"Plant response rating, Sedge, Umbrella",[10]; [17],0
same,"Plant response rating, Sedge, Umbrella",[10]; [18],60
same,"Sedge, Umbrella plant response rating",[10]; [19],0
